{"source": "ChEMBL document CHEMBL3580659", "about": "“One-pot multicomponent synthesis of indole incorporated thiazolylcoumarins and their antibacterial, anticancer and DNA cleavage studies” (2015)", "format_in_all_cases": "functional", "key": {"[1]": {"test": "Cytotoxicity against human NCI-ADR-RES cells assessed as cell growth level at 100 uM after 48 hrs by sulforhodamine B assay"}, "786-0": {"system": "786-0", "test": "Cytotoxicity against human 786-0 cells assessed as cell growth level at 100 uM after 48 hrs by sulforhodamine B assay"}, "UO-31": {"system": "UO-31", "test": "Cytotoxicity against human UO31 cells assessed as cell growth level at 100 uM after 48 hrs by sulforhodamine B assay"}, "NCI-H226": {"system": "NCI-H226", "test": "Cytotoxicity against human NCI-H226 cells assessed as cell growth level at 10 nM after 48 hrs by sulforhodamine B assay"}, "SW-620 [2]": {"system": "SW-620", "test": "Cytotoxicity against human SW620 cells assessed as cell growth level at 10 nM after 48 hrs by sulforhodamine B assay"}, "MDA-MB-435 [3]": {"system": "MDA-MB-435", "test": "Cytotoxicity against human MDA-MB-435 cells assessed as cell growth level at 10 nM after 48 hrs by sulforhodamine B assay"}, "UACC-62": {"system": "UACC-62", "test": "Cytotoxicity against human UACC62 cells assessed as cell growth level at 10 nM after 48 hrs by sulforhodamine B assay"}, "OVCAR-5 [4]": {"system": "OVCAR-5", "test": "Cytotoxicity against human OVCAR5 cells assessed as cell growth level at 10 nM after 48 hrs by sulforhodamine B assay"}, "MDA-MB-231": {"system": "MDA-MB-231", "test": "Cytotoxicity against human MDA-MB-231/ATCC cells assessed as cell growth level at 10 nM after 48 hrs by sulforhodamine B assay"}, "NCI-H23": {"system": "NCI-H23", "test": "Cytotoxicity against human NCI-H23 cells assessed as cell growth level at 100 nM after 48 hrs by sulforhodamine B assay"}, "SNB-19": {"system": "SNB-19", "test": "Cytotoxicity against human SNB19 cells assessed as cell growth level at 100 nM after 48 hrs by sulforhodamine B assay"}, "U-251": {"system": "U-251", "test": "Cytotoxicity against human U251 cells assessed as cell growth level at 100 nM after 48 hrs by sulforhodamine B assay"}, "MDA-MB-435 [5]": {"system": "MDA-MB-435", "test": "Cytotoxicity against human MDA-MB-435 cells assessed as cell growth level at 100 nM after 48 hrs by sulforhodamine B assay"}, "UACC-257": {"system": "UACC-257", "test": "Cytotoxicity against human UACC257 cells assessed as cell growth level at 100 nM after 48 hrs by sulforhodamine B assay"}, "OVCAR-5 [6]": {"system": "OVCAR-5", "test": "Cytotoxicity against human OVCAR5 cells assessed as cell growth level at 100 nM after 48 hrs by sulforhodamine B assay"}, "Bacillus subtilis": {"system": "Bacillus subtilis", "test": "Antibacterial activity against Bacillus subtilis assessed as bacterial growth inhibition at 50 ug/ml after 24 hrs by cup-plate agar diffusion method", "conditions": "read-out: IZ"}, "PC-3": {"system": "PC-3", "test": "Cytotoxicity against human PC3 cells assessed as cell growth level at 100 nM after 48 hrs by sulforhodamine B assay"}, "A549 [7]": {"system": "A549", "test": "Cytotoxicity against human A549/ATCC cells assessed as cell growth level at 1 uM after 48 hrs by sulforhodamine B assay"}, "HOP-62": {"system": "HOP-62", "test": "Cytotoxicity against human HOP62 cells assessed as cell growth level at 1 uM after 48 hrs by sulforhodamine B assay"}, "NCI-H460": {"system": "NCI-H460", "test": "Cytotoxicity against human NCI-H460 cells assessed as cell growth level at 1 uM after 48 hrs by sulforhodamine B assay"}, "HT-29": {"system": "HT-29", "test": "Cytotoxicity against human HT-29 cells assessed as cell growth level at 1 uM after 48 hrs by sulforhodamine B assay"}, "NCI-H522 [8]": {"system": "NCI-H522", "test": "Cytotoxicity against human NCI-H522 cells assessed as cell growth level at 10 uM after 48 hrs by sulforhodamine B assay"}, "SF-295 [9]": {"system": "SF-295", "test": "Cytotoxicity against human SF295 cells assessed as cell growth level at 10 uM after 48 hrs by sulforhodamine B assay"}, "[10]": {"test": "Cytotoxicity against human NCI-ADR-RES cells assessed as cell growth level at 10 uM after 48 hrs by sulforhodamine B assay"}, "CAKI-1": {"system": "CAKI-1", "test": "Cytotoxicity against human CAKI-1 cells assessed as cell growth level at 10 uM after 48 hrs by sulforhodamine B assay"}, "SN12C": {"system": "SN12C", "test": "Cytotoxicity against human SN12C cells assessed as cell growth level at 10 uM after 48 hrs by sulforhodamine B assay"}, "SF-268": {"system": "SF-268", "test": "Cytotoxicity against human SF268 cells assessed as cell growth level at 1 uM after 48 hrs by sulforhodamine B assay"}, "SF-295 [11]": {"system": "SF-295", "test": "Cytotoxicity against human SF295 cells assessed as cell growth level at 1 uM after 48 hrs by sulforhodamine B assay"}, "IGROV-1": {"system": "IGROV-1", "test": "Cytotoxicity against human IGROV1 cells assessed as cell growth level at 1 uM after 48 hrs by sulforhodamine B assay"}, "OVCAR-3": {"system": "OVCAR-3", "test": "Cytotoxicity against human OVCAR3 cells assessed as cell growth level at 1 uM after 48 hrs by sulforhodamine B assay"}, "OVCAR-5 [12]": {"system": "OVCAR-5", "test": "Cytotoxicity against human OVCAR5 cells assessed as cell growth level at 1 uM after 48 hrs by sulforhodamine B assay"}, "OVCAR-8": {"system": "OVCAR-8", "test": "Cytotoxicity against human OVCAR8 cells assessed as cell growth level at 1 uM after 48 hrs by sulforhodamine B assay"}, "[13]": {"test": "Cytotoxicity against human NCI-ADR-RES cells assessed as cell growth level at 1 uM after 48 hrs by sulforhodamine B assay"}, "MDA-MB-468": {"system": "MDA-MB-468", "test": "Cytotoxicity against human MDA-MB-468 cells assessed as cell growth level at 1 uM after 48 hrs by sulforhodamine B assay"}, "A549 [14]": {"system": "A549", "test": "Cytotoxicity against human A549/ATCC cells assessed as cell growth level at 100 uM after 48 hrs by sulforhodamine B assay"}, "BT-549": {"system": "BT-549", "test": "Cytotoxicity against human BT549 cells assessed as cell growth level at 10 uM after 48 hrs by sulforhodamine B assay"}, "SW-620 [15]": {"system": "SW-620", "test": "Cytotoxicity against human SW620 cells after 48 hrs by sulforhodamine B assay", "conditions": "SW-620, 48 h"}, "NCI-H522 [16]": {"system": "NCI-H522", "test": "Cytotoxicity against human NCI-H522 cells assessed as cell growth level at 100 uM after 48 hrs by sulforhodamine B assay"}, "SK-MEL-5": {"system": "SK-MEL-5", "test": "Cytotoxicity against human SK-MEL-5 cells after 48 hrs by sulforhodamine B assay", "conditions": "SK-MEL-5, 48 h"}, "[17]": {"test": "Cytotoxicity against human NCI-ADR-RES cells after 48 hrs by sulforhodamine B assay"}, "DU-145": {"system": "DU-145", "test": "Cytotoxicity against human DU145 cells after 48 hrs by sulforhodamine B assay", "conditions": "DU-145, 48 h"}, "[18]": {"conditions": "read-out: LC50 (the source's name)"}, "[19]": {"conditions": "read-out: pLC50 (the source's name) (converted)"}}}
{"smiles": "O=c1oc2ccccc2cc1-c1csc(N/N=C/c2c[nH]c3ccccc23)n1", "values": [{"measurement": "Activity", "setting": "[1]", "value": 8, "unit": "%"}, {"measurement": "Activity", "setting": "786-0", "value": -27, "unit": "%"}, {"measurement": "Activity", "setting": "UO-31", "value": -52, "unit": "%"}, {"measurement": "Activity", "setting": "NCI-H226", "value": 98, "unit": "%"}, {"measurement": "Activity", "setting": "SW-620 [2]", "value": 98, "unit": "%"}, {"measurement": "Activity", "setting": "MDA-MB-435 [3]", "value": 92, "unit": "%"}, {"measurement": "Activity", "setting": "UACC-62", "value": 95, "unit": "%"}, {"measurement": "Activity", "setting": "OVCAR-5 [4]", "value": 102, "unit": "%"}, {"measurement": "Activity", "setting": "MDA-MB-231", "value": 97, "unit": "%"}, {"measurement": "Activity", "setting": "NCI-H23", "value": 88, "unit": "%"}, {"measurement": "Activity", "setting": "SNB-19", "value": 89, "unit": "%"}, {"measurement": "Activity", "setting": "U-251", "value": 108, "unit": "%"}, {"measurement": "Activity", "setting": "MDA-MB-435 [5]", "value": 99, "unit": "%"}, {"measurement": "Activity", "setting": "UACC-257", "value": 88, "unit": "%"}, {"measurement": "Activity", "setting": "OVCAR-5 [6]", "value": 99, "unit": "%"}, {"measurement": "zone of inhibition at 50 µg/mL", "setting": "Bacillus subtilis", "value": 18, "unit": "mm"}, {"measurement": "Activity", "setting": "PC-3", "value": 102, "unit": "%"}, {"measurement": "Activity", "setting": "A549 [7]", "value": 68, "unit": "%"}, {"measurement": "Activity", "setting": "HOP-62", "value": 103, "unit": "%"}, {"measurement": "Activity", "setting": "NCI-H460", "value": 52, "unit": "%"}, {"measurement": "Activity", "setting": "HT-29", "value": 89, "unit": "%"}, {"measurement": "Activity", "setting": "NCI-H522 [8]", "value": -77.8, "unit": "%"}, {"measurement": "Activity", "setting": "SF-295 [9]", "value": -25.04, "unit": "%"}, {"measurement": "Activity", "setting": "[10]", "value": 24.9, "unit": "%"}, {"measurement": "Activity", "setting": "CAKI-1", "value": -41.32, "unit": "%"}, {"measurement": "Activity", "setting": "SN12C", "value": 0.22, "unit": "%"}, {"measurement": "Activity", "setting": "SF-268", "value": 86, "unit": "%"}, {"measurement": "Activity", "setting": "SF-295 [11]", "value": 80, "unit": "%"}, {"measurement": "Activity", "setting": "IGROV-1", "value": 58, "unit": "%"}, {"measurement": "Activity", "setting": "OVCAR-3", "value": 61, "unit": "%"}, {"measurement": "Activity", "setting": "OVCAR-5 [12]", "value": 87, "unit": "%"}, {"measurement": "Activity", "setting": "OVCAR-8", "value": 94, "unit": "%"}, {"measurement": "Activity", "setting": "[13]", "value": 104, "unit": "%"}, {"measurement": "Activity", "setting": "MDA-MB-468", "value": 72, "unit": "%"}, {"measurement": "Activity", "setting": "A549 [14]", "value": -29, "unit": "%"}, {"measurement": "Activity", "setting": "BT-549", "value": -12.14, "unit": "%"}, {"measurement": "GI50", "setting": "SW-620 [15]; read-out: GI50", "value": 2.19, "unit": "µM"}, {"measurement": "CC50", "setting": "SW-620 [15]; [18]", "value": 70.9, "unit": "µM"}, {"measurement": "TGI", "setting": "SW-620 [15]; read-out: TGI", "value": 5.24, "unit": "µM"}, {"measurement": "GI50", "setting": "SW-620 [15]; read-out: pGI50 (converted)", "value": 2.19, "unit": "µM"}, {"measurement": "CC50", "setting": "SW-620 [15]; [19]", "value": 70.8, "unit": "µM"}, {"measurement": "TGI", "setting": "SW-620 [15]; read-out: pTGI", "value": 5.25, "unit": "µM"}, {"measurement": "Activity", "setting": "NCI-H522 [16]", "value": -80, "unit": "%"}, {"measurement": "GI50", "setting": "SK-MEL-5; read-out: GI50", "value": 2.09, "unit": "µM"}, {"measurement": "CC50", "setting": "SK-MEL-5; [18]", "value": 15.2, "unit": "µM"}, {"measurement": "TGI", "setting": "SK-MEL-5; read-out: TGI", "value": 4.97, "unit": "µM"}, {"measurement": "GI50", "setting": "SK-MEL-5; read-out: pGI50 (converted)", "value": 2.09, "unit": "µM"}, {"measurement": "CC50", "setting": "SK-MEL-5; [19]", "value": 15.1, "unit": "µM"}, {"measurement": "TGI", "setting": "SK-MEL-5; read-out: pTGI (converted)", "value": 5.01, "unit": "µM"}, {"measurement": "GI50", "setting": "[17]; read-out: GI50", "value": 2.82, "unit": "µM"}, {"measurement": "CC50", "setting": "[17]; [18]", "value": "> 100", "unit": "µM"}, {"measurement": "TGI", "setting": "[17]; read-out: TGI", "value": 9.23, "unit": "µM"}, {"measurement": "GI50", "setting": "[17]; read-out: pGI50 (converted)", "value": 2.82, "unit": "µM"}, {"measurement": "CC50", "setting": "[17]; [19]", "value": "> 100", "unit": "µM"}, {"measurement": "TGI", "setting": "[17]; read-out: pTGI", "value": "< 9.33", "unit": "µM"}, {"measurement": "GI50", "setting": "DU-145; read-out: GI50", "value": 1.8, "unit": "µM"}, {"measurement": "CC50", "setting": "DU-145; [18]", "value": "> 100", "unit": "µM"}, {"measurement": "TGI", "setting": "DU-145; read-out: TGI", "value": 4.27, "unit": "µM"}, {"measurement": "GI50", "setting": "DU-145; read-out: pGI50 (converted)", "value": 1.82, "unit": "µM"}, {"measurement": "CC50", "setting": "DU-145; [19]", "value": "> 100", "unit": "µM"}, {"measurement": "TGI", "setting": "DU-145; read-out: pTGI (converted)", "value": 4.27, "unit": "µM"}]}
